Measurements published in US9809843B1, “High throughput measurement of DNA base lesion repair capacity” (THE FLORIDA INTERNATIONAL UNIVERSITY BOARD OF TRUSTEES, priority 2016, dated 2017).

Tests used:
[1] = system: prostate cancer (LNCaP) cell extracts; experiment: BER capacity of prostate cancer cell extracts (fluorescence assay); format: biochemical, human; details: 25 μg cell extracts, inhibitor 200 μM, 37° C. 30 minutes; FIG. 7
Method: Cell pellets were re-suspended in lysis buffer that contained 10 mM Tris-HCl, pH 7.8, 200 mM KCl, 1 mM EDTA, 20% glycerol, 0.1% Nonidet P-40, 1 mM DTT with proteinase inhibitors (Roche Diagnostics Corporation, Indianapolis, Ind.). Cell suspension was subsequently subjected to rotation at 4° C. for 2 hours. After rotation, cell lysates were centrifuged at 14,000 rpm at 4° C. for 30 minutes to remove cell debris. The supernatant was recovered and further dialyzed into BER reaction buffer containing 50 mM Tris-HCl, pH 7.5, 50 mM KCl, 0.1 mM EDTA, 0.1 mg/ml bovine serum albumin, and 0.01% Nonidet P-40. Protein concentration of cell lysates was determined by Bradford assay. Cell lysates were aliquoted and stored at −80° C. for subsequent assay.
Substrates (25 nM) were pre-incubated with 25 nM purified APE1 at 37° C. for 15 minutes, and completely converted into ssDNA break intermediates for subsequent BER reactions. In vitro BER of a THF base lesion was performed by incubating APE1 precut substrate with 25 μg cell extracts in 10 μl-reaction mixtures that contained BER reaction buffer with 5 mM Mg^2+, 50 μM dNTP and 2 mM ATP in the absence or presence of inhibitors. Reaction mixtures were assembled on ice and incubated at 37° C. for 30 minutes.
10 μl-reaction mixtures were then transferred to […] black plates (Thermo Fisher Scientific, Pittsburgh, Pa.) and subjected to fluorescence reading. Each substrates/lysate/inhibitor combination was run in triplicate.
[…] plates were read at an excitation wavelength of 485±20 nm and an emission wavelength of 528±20 nm on a Synergy HTX Plate Reader (Bio-Tek, Winooski, Vt.). Data were exported to Excel for statistical analysis.
The fluorescence reading of each well needs to be abstracted by the reading from the well with 10 μl-BER reaction buffer alone before further data analysis. Normalized fluorescence data were averaged and plotted as “Average±Standard Deviation.” […]

Exo III = Exo III (Escherichia coli, UniProt P09030); details: 0.5 U EXO III
Method: 0.5 U EXO III was added into each reaction and incubated at 37° C. for 10 minutes to release fluorescence signal. Reaction mixtures were incubated at 50° C. for additional 30 min to ensure the complete release of 6-FAM conjugated unrepaired DNA substrates. EDTA was added into each reaction at a final concentration of 50 mM to terminate the reactions. Fluorescence readings were measured at excitation wavelength of 485±20 nm and emission wavelength of 528±20 nm on Synergy HTX Plate Reader. Data were exported for statistical analysis. The fluorescence reading of each well were adjusted by subtracting background reading signals from a control containing substrate […]. Normalized fluorescence data were averaged and plotted with corresponding statistical errors.

Sequence of Exo III (P09030 whole entry): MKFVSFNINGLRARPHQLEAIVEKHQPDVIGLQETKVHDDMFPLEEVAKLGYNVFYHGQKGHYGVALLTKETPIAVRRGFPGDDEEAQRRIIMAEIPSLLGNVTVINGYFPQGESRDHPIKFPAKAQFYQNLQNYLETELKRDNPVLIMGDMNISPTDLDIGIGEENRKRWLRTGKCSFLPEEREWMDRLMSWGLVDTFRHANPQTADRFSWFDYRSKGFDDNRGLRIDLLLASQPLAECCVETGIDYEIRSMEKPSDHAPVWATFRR

NC1=NC(=O)N(C2CC(O)C(COP(=O)(O)O)O2)C(I)C1 (stereo not drawn) [NSC-124854]
effects on reducing BER capacity of prostate cancer (LNCaP) cell extracts [1]: not significant | inhibitory effects on Exo III activity (Exo III): do not exhibit any inhibitory effects

Cc1cc(S(=O)(=O)Nc2n[nH]c(Nc3ccc(Cl)cc3)n2)c(S)cc1Cl [NSC-666715]
effects on reducing BER capacity of prostate cancer (LNCaP) cell extracts [1]: not significant | inhibitory effects on Exo III activity (Exo III): do not exhibit any inhibitory effects

Cc1cc(S(=O)(=O)Nc2n[nH]c(Nc3ccc4ccccc4c3)n2)c(S)cc1Cl [NSC-666719]
effects on reducing BER capacity of prostate cancer (LNCaP) cell extracts [1]: not significant | inhibitory effects on Exo III activity (Exo III): do not exhibit any inhibitory effects
